Measured values: patent US6369294B1, “Methods comprising apoptosis inhibitors for the generation of transgenic pigs” (Texas A&M University System, priority 1996, dated 2002)
Several values for one entry are separate records, joined by “and”; a condition that tells them apart may be missing. Equal entries are not always repeated. Each block holds one molecule with its values, some of them ahead of it.

Tests used:
STO feeder cells = STO feeder cells plated with or without bFGF, morphology; type: cell-based, mouse; conditions: PES media containing 40 ng/ml bFGF for 48 hours
Protocol: (§1) STO feeder cells were plated in PES media alone for 48 hours or in PES media containing 40 ng/ml bFGF for the same period of time. […] It is not presently known whether bFGF is acting directly on the proliferation rate of the PGCs or whether the effect is through a change in the physiology of the STO cells which then effects the PGCs.

[1] = test system: porcine primordial germ cells; experiment: Isolation of porcine primordial germ cells with bFGF; type: cell-based
Protocol: as §1
Thirdly, when low density feeders are used to culture porcine PGCs, very few colonies grow and the few that do grow are always in direct contact with the feeder cells. No colonies grow on the plastic, even if surrounded by STO cells. Thus it is unlikely that the STO's are producing a soluble factor. Additionally, to isolate porcine PGC-derived cells, it is an absolute requirement that bFGF be added to the feeders. The bFGF drastically changes the morphology of the feeder cells. Thus the bFGF may be acting on the feeder to promote/inhibit production of a matrix component versus acting directly on the PGC cells. Also, very few colonies are obtained when plating porcine PGCs on feeders made within 6 hours. However, feeders made 24 hours prior to plating yield much better results. Thus this period of time may be required for synthesis and secretion of some matrix component.

porcine ICM (pICM) = experiment: In vitro differentiation assay of cultured porcine inner cell mass, graded 1 to 5; type: cell-based; conditions: for differentiation score on day two, study 2: scale 1 (fully undifferentiated) to 5 (fully differentiated), p<0.05
Source text: The inventors have developed a grading system to detect changes in the differentiation status of in vitro cultured PGC cells or the pICM. In the first study porcine ICMs (day 7) were isolated by immunosurgery and cultured 4 days in DMEM-based medium (D medium) or DMEM/Hams F-10 (1:1)-based medium (D/H medium) with or without human leukemia inhibitory factor (hLIF; 1000 μ/ml). For the second study pICMs were collected as above and cultured 4 days in one of six treatments: control medium, human leukemia inhibitory factor (hLIF; 1000 μ/ml), human interleukin-6 (hIL-6; 100 ng/ml), hIL-6+hIL-6 soluble receptor (hIL6+sR; 100 ng/ml+2.5 μg/ml), human oncostatin M (hOSM; 100 ng/ml), or rat ciliary neurotrophic factor (rCNTF; 100 ng/ml). All cytokines were prepared in Dulbecco's Modified Eagles Medium/Hams F-10 (1:1)-based medium. The colonies were photographed daily for morphological analysis.
pICMs were categorized into one of two types based on their morphological profile: type A, non-epithelial or type B, epithelial-like. The pICM differentiation was evaluated using standardized differentiation profiles. Each pICM series was graded on a scale of 1 (fully undifferentiated) to 5 (fully differentiated) for each time point. Differentiation was verified by alkaline phosphatase activity, cytokeratin staining, and scanning electron microscopy. […] Furthermore, addition of rCNTF gave the lowest overall mean differentiation score (2.53±0.15). […] The grading system employed was thus an effective tool for detecting treatment effects on differentiation of the developing pICM.

cultured PGCs = experiment: Passage of cultured PGCs in presence or absence of α2-macroglobulin, alkaline phosphatase positive colonies; type: cell-based
Source text: The effect of α2-macroglobulin on the ability to passage cells was also studied. To test the ability of α2-macroglobulin to protect against the losses normally observed when cultured PGCs are trypsinized, cells were passaged twice in the presence or absence of α2-macroglobulin, the colonies fixed, stained for alkaline phosphatase and the number of alkaline phosphatase positive colonies determined. PGCs were collected in PES and plated on feeder layers in the presence or absence of media containing 1 μg/ml α2-macroglobulin. Colonies were allowed to grow for 7 days, trypsinized as described above and plated again in media with or without α2-macroglobulin. Samples were done in duplicate and corrected for the number of added cells.

bovine PGC's = experiment: Third passage bovine PGC colonies with or without α2-macroglobulin (preliminary study); type: cell-based
Source text: The ability of colonies cultured and passaged in the presence or absence of α2-macroglobulin to survive in an undifferentiated state for multiple passages is currently being studied. In a preliminary study twice as many colonies were obtained from third passage bovine PGC's (22 versus 45) cultured in media with α2-macroglobulin than in media without the protease inhibitor. Moreover, the colonies appear on average 2-3 days earlier and are of larger size when cultured in the presence of α2-macroglobulin.

PGC [2] = experiment: Optimal concentration of α2-macroglobulin: ratio of AP positive colonies to control samples; type: cell-based; conditions: for ratio of AP positive colonies compared to control samples: three trials
Protocol: An additional study was performed to determine the optimal concentration of α2-macroglobulin. The ratio of AP positive colonies in samples containing either 1 μg/ml or 0.5 μg/ml as compared to control samples was determined for three trials. The ratios at 1 μg/ml were 0.81±0.37, 0.84±0.23 and 0.83±0.27, while at 0.5 μg/ml they were 1.98±0.36, 1.43±0.27 and 1.70±0.41.

PGCs = experiment: Effect of isolation procedure and α2-macroglobulin on PGCs developing into alkaline phosphatase positive colonies; type: cell-based, pig; conditions: α2-macroglobulin 1 μg/ml; for alkaline phosphatase positive colonies (replicates R1-R3): counted six days later
Protocol: Genital ridges from two day 25-27 pig fetuses were collected, divided into four groups (a 2×2 study), placed in PES media either with α2-macroglobulin at 1 μg/ml (2 groups) or without α2-macroglobulin (2 groups), and immediately either needle teased to allow colonies to seep out (2 groups) or macerated (2 groups) with the help of a syringe. Briefly, the ridges were broken into small pieces by pressing them against the bottom of a dish with the back of a syringe. The disrupted tissues were further broken up by passing them several times through a 20 gauge needle until all large tissue clumps had been disrupted. Following tissue disruption, samples were centrifuged for 3-5 minutes at 250×g to settle tissue fragments and supernatant containing mostly single cells collected and centrifuged at 1000×g for 5 min. The resulting pellet was resuspended in PES containing LIF, SCF, and bFGF with or without human α2-macroglobulin, cells counted, and plated in triplicate in feeder layers.
Six days later colonies were fixed, stained for alkaline phosphatase activity, and counted.

PGC [3] = experiment: Addition of uteroferrin or uteroferrin rose to PGC culture media; type: cell-based
Protocol: The pellet, containing PGCs, was resuspended in PES media Following collection, the cells were rinsed 3 times by centrifugation and resuspended in PEG medium containing soluble recombinant human stem cells factor at 30 ng/ml, human basic fibroblast growth factor at 40 ng/ml, and LIF at 20 ng/ml and plated onto STO feeder layers. Additionally, the effect of the addition of 100 ng/ml of uteroferrin in the presence or absence of stem cell factor on the number of alkaline phosphatase positive colonies was determined.
In order to determine the beneficial effect provided by the serpin alone, a broad range protease inhibitor called α2-macroglobulin was studied (Feige et al., 1996).

[4] = rCNTF 100 ng/ml, hLIF 1000 μ/ml

Molecule: bFGF: basic fibroblast growth factor
change in morphology of the feeder cells (STO feeder cells): drastic change is seen in the morphology of the feeder cells
requirement for the isolation of porcine primordial germ cells [1]: essential component for the isolation of porcine primordial germ cells

Molecule: hLIF: human leukemia inhibitory factor
delay of differentiation of the developing pICM, study 1 (porcine ICM (pICM); hLIF 1000 μ/ml, D or D/H medium, 4 days, p=0.08): neither hLIF nor culture medium delayed differentiation
differentiation score on day two, study 2 (porcine ICM (pICM); [4]): 2.70±0.16

Normalized value (cultured PGCs; 1st passage +, 2nd passage +): 2052 colonies per 1000 colonies plated
Normalized value (cultured PGCs; 1st passage +, 2nd passage −): 1512 colonies per 1000 colonies plated
Normalized value (cultured PGCs; 1st passage −, 2nd passage +): 1422 colonies per 1000 colonies plated
Normalized value (cultured PGCs; first passage, media with 1 μg/ml α2-macroglobulin): 22028 colonies per million cells
Normalized value (PGCs; pig 1, macerate): 16395 colonies per million cells
alkaline phosphatase positive colonies (replicates R1-R3) (PGCs; pig 1, macerate): 4712 and 5176 and 4368
Normalized value (PGCs; pig 1, teasing): 18087 colonies per million cells
alkaline phosphatase positive colonies (replicates R1-R3) (PGCs; pig 1, teasing): 4688 and 4960 and 5424
Normalized value (PGCs; pig 2, macerate): 35865 colonies per million cells
alkaline phosphatase positive colonies (replicates R1-R3) (PGCs; pig 2, macerate): 8312 and 7872 and 8896
Normalized value (PGCs; pig 2, teasing): 37380 colonies per million cells
alkaline phosphatase positive colonies (replicates R1-R3) (PGCs; pig 2, teasing): 6200 and 6008 and 6864
Molecule: α2-macroglobulin: broad range protease inhibitor; apoptosis inhibitor added to PGC culture media at 1 μg/ml
number of colonies from third passage bovine PGC's (bovine PGC's; media with α2-macroglobulin, 22 without): 45
colonies appear earlier than without α2-macroglobulin (bovine PGC's; on average): 2 to 3 days
factor by which the lower dose is more effective in generating AP positive colonies (PGC [2]; 0.5 μg/ml versus 1 μg/ml): ~2
ratio of AP positive colonies compared to control samples (PGC [2]; α2-macroglobulin 0.5 μg/ml): 1.98±0.36 and 1.43±0.27 and 1.70±0.41
ratio of AP positive colonies compared to control samples (PGC [2]; α2-macroglobulin 1 μg/ml): 0.81±0.37 and 0.84±0.23 and 0.83±0.27

B1: uteroferrin: purple colored, progesterone-induced iron-containing glycoprotein secreted by uterine endometrial epithelium of pigs (protein, UniProt P09889 21-340, looked up)
Tartrate-resistant acid …: GTRTNTRTAPTPILRFVAVGDWGGVPNAPFHTAREMANAKAIATTVKTLGADFILSLGDNFYFTGVHDAKDKRFQETFEDVFSDPSLRNVPWHVLAGNHDHLGNVSAQIAYSKISKRWNFPSPYYRLRFKIPRSNVSVAIFMLDTVTLCGNSDDFVSQQPERPRNLALARTQLAWIKKQLAAAKEDYVLVAGHYPVWSIAEHGPTHCLVKQLLPLLTTHKVTAYLCGHDHNLQYLQDENGLGFVLSGAGNFMDPSKKHLRKVPNGYLRFHFGAENSLGGFAYVEITPKEMSVTYIEASGKSLFKTKLPRRARSEHQHRRA
effect on the number of resulting PGC colonies (PGC [3]): some improvement

B2: rCNTF: rat ciliary neurotrophic factor (protein, UniProt P20294 1-200, looked up)
Ciliary neurotrophic factor: MAFAEQTPLTLHRRDLCSRSIWLARKIRSDLTALMESYVKHQGLNKNINLDSVDGVPVASTDRWSEMTEAERLQENLQAYRTFQGMLTKLLEDQRVHFTPTEGDFHQAIHTLMLQVSAFAYQLEELMVLLEQKIPENEADGMPATVGDGGLFEKKLWGLKVLQELSQWTVRSIHDLRVISSHQMGISALESHYGAKDKQM
differentiation score on day two, study 2 (porcine ICM (pICM); [4]): 2.07±0.15
overall mean differentiation score, study 2 (porcine ICM (pICM); scale 1 to 5, 4 day culture, rCNTF 100 ng/ml): 2.53±0.15
